Laboratory results as given in article PMC5750651, “Disposition, Metabolism and Histone Deacetylase and Acetyltransferase Inhibition Activity of Tetrahydrocurcumin and Other Curcuminoids” (Pharmaceutics, 2017).
“Also recorded” adds a separate entry of the source. Read-outs that look alike come from different tables or passages of the source.

Key:
CYP2D6 = CYP2D6 (Homo sapiens, UniProt P10635); test: Vivid CYP450 screening kit, CYP2D6; conditions: 0.01-100 μM
Procedure: (§1) CYP2C9, CYP3A4, CYP1A2 and CYP2D6 assays were performed to assess metabolism and inhibition of human P450 isozymes involved using Vivid® CYP450 screening kits and CYP450 BACULOSOMES® Plus Reagents. CYP450 BACULOSOMES® Plus Reagents express only one CYP450 enzyme, preventing metabolism by other CYP450s. For CYP2C9, the substrate was BOMF and the positive control inhibitor sulfaphenazole; for CYP3A4, DBOMF was the substrate and ketoconazole the positive control inhibitor; for CYP1A2, the substrate was EOMCC and the positive control inhibitor naphthoflavone; for CYP2D6, the substrate was EOMCC and the positive control inhibitor quinidine. The assays were performed using the excitation and emission wavelengths recommended by the manufacturer. […] The plate was incubated for 10 min at room temperature (25 ± 1 °C) on a plate shaker. Then, 10 μL of Vivid® Substrate was added to each well to start the reaction. […] The assay was done in triplicate. The reading was performed at 1 min intervals for 60 min. Inhibition was calculated as (1 − (X − B/A − B)) × 100%, where X was the average of compound fluorescence, A was the average of solvent control and B was the average of inhibition in the presence of positive inhibitor control. The percent inhibition was calculated relative to a fixed concentration of the positive control. […]

[1] = Total antioxidant capacity assay kit (ABTS, Trolox equivalents); conditions: with respect to Trolox
CYP2C9 = target: T1, CYP2C9 (Homo sapiens, UniProt P11712); test: Vivid CYP450 screening kit, CYP2C9; format: in vitro ADME; conditions: 0.01-100 μM, relative to sulfaphenazole
T1 construct: purchased Life Technologies P2860
T1 sequence (P11712 whole entry): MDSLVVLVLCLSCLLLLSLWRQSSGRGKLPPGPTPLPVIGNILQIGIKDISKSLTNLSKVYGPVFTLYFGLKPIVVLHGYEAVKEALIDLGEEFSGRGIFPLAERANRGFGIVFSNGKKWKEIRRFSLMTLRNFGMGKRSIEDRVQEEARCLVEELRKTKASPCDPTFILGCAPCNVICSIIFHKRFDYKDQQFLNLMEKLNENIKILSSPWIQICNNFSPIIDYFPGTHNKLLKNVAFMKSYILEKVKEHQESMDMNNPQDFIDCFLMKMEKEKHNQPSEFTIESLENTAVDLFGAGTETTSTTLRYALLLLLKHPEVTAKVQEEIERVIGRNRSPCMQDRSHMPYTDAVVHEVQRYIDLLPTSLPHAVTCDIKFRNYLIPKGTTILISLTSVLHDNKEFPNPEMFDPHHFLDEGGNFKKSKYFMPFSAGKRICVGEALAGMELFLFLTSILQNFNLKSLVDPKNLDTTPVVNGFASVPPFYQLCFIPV

CYP3A4 = CYP3A4 (Homo sapiens, UniProt P08684); test: Vivid CYP450 screening kit, CYP3A4; conditions: 0.01-100 μM, relative to ketoconazole; to a lesser extent than CYP2C9
CYP3A4, sequence (P08684 whole entry): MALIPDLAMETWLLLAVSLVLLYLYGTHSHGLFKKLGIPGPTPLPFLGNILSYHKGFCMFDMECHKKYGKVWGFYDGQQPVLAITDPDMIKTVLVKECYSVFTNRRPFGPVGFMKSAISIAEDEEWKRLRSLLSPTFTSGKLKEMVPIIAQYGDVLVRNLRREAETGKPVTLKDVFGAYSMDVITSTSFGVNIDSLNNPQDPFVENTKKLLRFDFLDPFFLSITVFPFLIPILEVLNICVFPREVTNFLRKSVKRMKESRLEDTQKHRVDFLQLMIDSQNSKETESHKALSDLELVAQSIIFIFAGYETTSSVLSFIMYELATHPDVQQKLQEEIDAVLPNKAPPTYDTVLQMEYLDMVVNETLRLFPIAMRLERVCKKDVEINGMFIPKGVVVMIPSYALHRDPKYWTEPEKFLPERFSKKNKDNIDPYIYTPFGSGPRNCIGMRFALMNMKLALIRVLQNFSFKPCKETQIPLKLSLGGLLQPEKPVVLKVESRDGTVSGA
Procedure: as §1

PCAF = target: T2, PCAF (Homo sapiens, UniProt Q92831); test: PCAF inhibitor screening assay kit (fluorescence); format: biochemical; conditions: for IC50: mean ± SD
T2 construct: purchased Cayman 10006515
T2 sequence (Q92831 492-658 limits assumed): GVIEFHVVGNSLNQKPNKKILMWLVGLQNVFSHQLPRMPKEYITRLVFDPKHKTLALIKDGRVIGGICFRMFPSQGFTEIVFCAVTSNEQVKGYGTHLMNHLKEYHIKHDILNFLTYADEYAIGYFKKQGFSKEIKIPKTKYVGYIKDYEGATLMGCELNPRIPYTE
Procedure: Curcuminoids were tested for direct HDAC1 and PCAF inhibitory activity using the fluorescent-based HDAC1 or PCAF inhibitor screening assay kit ((HDAC1) 10011564, (PCAF) 10006515, Cayman, Ann Arbor, MI, USA) according to manufacturer’s instructions.
(§2) Data for the PCAF and HDAC1 inhibition and viability assays were used to derive percent changes based on no treatment controls. Each of three data sets were then fit to a 4-parameter logistic regression using SigmaPlot 12.2 to derive IC50 values, which were then used to determine the mean and SD.

[2] = system: TNF-α release in Sup-T1 cells; test: Cellular inflammatory cytokine release assay (TNF-α ELISA); format: cell-based, human; conditions: Sup-T1 cells, 5, 10, 50 and 100 μM, versus no-treatment control
Procedure: Cell culture supernatant was collected and used to determine released TNF-α using the Human TNF-alpha DuoSet ELISA kit (DY210, R & D systems, Minneapolis, MN, USA) following the standard manufacturer’s protocol, optimized using recombinant TNF-α. […] The data were analyzed using SigmaPlot 12.2 (Systat Software Inc., San Jose, CA, USA).

CYP1A2 = target: T3, CYP1A2 (Homo sapiens, UniProt P05177); test: Vivid CYP450 screening kit, CYP1A2; conditions: 0.01-100 μM
T3 sequence (P05177 1-516): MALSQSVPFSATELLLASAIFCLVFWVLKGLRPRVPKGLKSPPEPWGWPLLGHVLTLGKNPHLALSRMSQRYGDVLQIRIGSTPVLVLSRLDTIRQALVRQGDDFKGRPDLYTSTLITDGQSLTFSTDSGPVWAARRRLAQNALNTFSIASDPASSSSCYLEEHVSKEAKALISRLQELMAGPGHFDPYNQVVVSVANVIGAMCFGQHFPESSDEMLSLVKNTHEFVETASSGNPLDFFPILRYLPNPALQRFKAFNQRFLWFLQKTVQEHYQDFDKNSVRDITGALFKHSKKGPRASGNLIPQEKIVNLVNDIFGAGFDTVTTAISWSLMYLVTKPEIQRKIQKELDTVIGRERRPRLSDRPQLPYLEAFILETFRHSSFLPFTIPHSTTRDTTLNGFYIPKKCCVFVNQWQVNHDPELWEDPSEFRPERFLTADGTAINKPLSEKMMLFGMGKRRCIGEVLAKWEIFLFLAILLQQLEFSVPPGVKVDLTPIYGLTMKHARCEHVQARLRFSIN
Procedure: as §1

COX-1 = target: T4, COX-1 (Ovis aries, UniProt P05979); test: COX inhibitor screening assay kit, COX-1; format: biochemical; conditions: mean ± SD
T4 construct: purchased Cayman Chemical 560131
T4 sequence (P05979 25-600): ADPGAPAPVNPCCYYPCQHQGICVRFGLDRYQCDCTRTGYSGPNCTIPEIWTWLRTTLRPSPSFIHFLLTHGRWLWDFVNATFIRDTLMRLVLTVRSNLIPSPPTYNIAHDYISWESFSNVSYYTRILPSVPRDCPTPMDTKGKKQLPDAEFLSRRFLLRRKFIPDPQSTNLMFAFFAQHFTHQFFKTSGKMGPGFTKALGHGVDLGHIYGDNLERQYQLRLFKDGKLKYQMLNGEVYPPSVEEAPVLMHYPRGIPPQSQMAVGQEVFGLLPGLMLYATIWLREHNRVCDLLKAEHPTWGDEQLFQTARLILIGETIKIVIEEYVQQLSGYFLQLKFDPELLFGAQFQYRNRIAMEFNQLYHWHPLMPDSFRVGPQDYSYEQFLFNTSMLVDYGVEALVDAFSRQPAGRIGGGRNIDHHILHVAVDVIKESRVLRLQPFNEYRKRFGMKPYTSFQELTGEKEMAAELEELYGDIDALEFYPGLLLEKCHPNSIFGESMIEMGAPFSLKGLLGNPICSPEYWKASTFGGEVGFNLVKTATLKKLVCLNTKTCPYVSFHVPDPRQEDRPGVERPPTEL
Procedure: The assay was performed in quadruplet using a COX Inhibitor Screening Assay Kit from Cayman Chemical (Cat. No. 560131) according to the manufacturer’s instructions.

Sup-T1 cells = test: Cellular growth inhibition assay (MTS); format: cell-based; conditions: for IC50: Homo sapiens
Procedure: The CellTiter 96® AQueous One Solution Cell Proliferation Assay (MTS, Promega, Madison, WI, USA) was used to measure proliferation inhibition of cultured cells. Briefly, Sup-T1 cells were cultured in RPMI 1640 supplemented with 10% FBS and 1% penicillin/streptomycin at 37 °C and 5% CO2. […] The MTS reagent was added and incubated for 4 h. […] Sup-T1 cells were used in this study because curcuminoids are thought in part to work via an HDAC inhibitor mechanism and as some HDACs are approved for some T-cell lymphomas, we used Sup-T1 cells because they are a T-cell lymphoma cell line that is established. To the best of our knowledge no other study has measured the effects of THC on Sup-T1 cells.
as §2

HDAC1 = target: T5, HDAC1 (Homo sapiens, UniProt Q13547); test: HDAC1 inhibitor screening assay kit (fluorescence); format: biochemical
T5 construct: purchased Cayman 10011564
T5 sequence (Q13547 whole entry): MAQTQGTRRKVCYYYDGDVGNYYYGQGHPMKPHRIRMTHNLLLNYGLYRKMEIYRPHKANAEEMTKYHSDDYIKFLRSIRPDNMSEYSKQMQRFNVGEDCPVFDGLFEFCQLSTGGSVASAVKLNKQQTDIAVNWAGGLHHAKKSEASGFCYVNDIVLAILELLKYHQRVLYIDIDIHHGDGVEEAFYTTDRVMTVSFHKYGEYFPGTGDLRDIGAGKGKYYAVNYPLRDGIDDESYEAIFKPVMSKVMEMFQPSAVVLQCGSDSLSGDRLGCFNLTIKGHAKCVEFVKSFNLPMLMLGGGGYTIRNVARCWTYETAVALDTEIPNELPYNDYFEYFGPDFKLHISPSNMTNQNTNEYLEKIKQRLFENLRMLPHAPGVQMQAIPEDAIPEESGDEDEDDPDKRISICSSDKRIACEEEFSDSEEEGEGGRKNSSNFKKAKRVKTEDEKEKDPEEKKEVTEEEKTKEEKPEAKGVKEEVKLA

COX-2 = target: T6, COX-2 (Homo sapiens, UniProt P35354); test: COX inhibitor screening assay kit, COX-2; format: biochemical; conditions: for COX-2/COX-1 IC50 ratio: COX-2 IC50 divided by COX-1 IC50
T6 construct: purchased Cayman Chemical 560131
T6 sequence (P35354 18-604): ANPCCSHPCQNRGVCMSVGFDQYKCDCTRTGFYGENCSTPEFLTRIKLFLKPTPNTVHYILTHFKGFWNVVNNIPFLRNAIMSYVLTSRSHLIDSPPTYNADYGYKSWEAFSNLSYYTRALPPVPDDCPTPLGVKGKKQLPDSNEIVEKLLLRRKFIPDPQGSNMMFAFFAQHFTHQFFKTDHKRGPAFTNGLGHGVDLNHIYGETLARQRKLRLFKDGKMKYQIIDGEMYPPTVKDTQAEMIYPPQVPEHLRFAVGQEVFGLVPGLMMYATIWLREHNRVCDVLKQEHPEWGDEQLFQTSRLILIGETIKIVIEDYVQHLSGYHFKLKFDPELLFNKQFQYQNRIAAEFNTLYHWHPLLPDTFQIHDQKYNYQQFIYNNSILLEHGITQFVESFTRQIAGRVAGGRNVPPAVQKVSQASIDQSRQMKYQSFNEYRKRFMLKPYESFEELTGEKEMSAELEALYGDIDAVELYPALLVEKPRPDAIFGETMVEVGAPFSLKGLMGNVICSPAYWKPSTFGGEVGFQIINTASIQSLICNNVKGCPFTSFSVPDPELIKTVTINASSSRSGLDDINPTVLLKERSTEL

[3] = target: T7, 15-lipoxygenase derived from soybean (Glycine max, UniProt P08170); test: Lipoxygenase inhibitor screening assay kit; conditions: for lipoxygenase inhibition (in words): 1, 10 and 250 μg/mL tested, versus control; for lowest concentration inhibiting lipoxygenase: soybean 15-lipoxygenase, linoleic acid substrate
T7 sequence (P08170 1-839): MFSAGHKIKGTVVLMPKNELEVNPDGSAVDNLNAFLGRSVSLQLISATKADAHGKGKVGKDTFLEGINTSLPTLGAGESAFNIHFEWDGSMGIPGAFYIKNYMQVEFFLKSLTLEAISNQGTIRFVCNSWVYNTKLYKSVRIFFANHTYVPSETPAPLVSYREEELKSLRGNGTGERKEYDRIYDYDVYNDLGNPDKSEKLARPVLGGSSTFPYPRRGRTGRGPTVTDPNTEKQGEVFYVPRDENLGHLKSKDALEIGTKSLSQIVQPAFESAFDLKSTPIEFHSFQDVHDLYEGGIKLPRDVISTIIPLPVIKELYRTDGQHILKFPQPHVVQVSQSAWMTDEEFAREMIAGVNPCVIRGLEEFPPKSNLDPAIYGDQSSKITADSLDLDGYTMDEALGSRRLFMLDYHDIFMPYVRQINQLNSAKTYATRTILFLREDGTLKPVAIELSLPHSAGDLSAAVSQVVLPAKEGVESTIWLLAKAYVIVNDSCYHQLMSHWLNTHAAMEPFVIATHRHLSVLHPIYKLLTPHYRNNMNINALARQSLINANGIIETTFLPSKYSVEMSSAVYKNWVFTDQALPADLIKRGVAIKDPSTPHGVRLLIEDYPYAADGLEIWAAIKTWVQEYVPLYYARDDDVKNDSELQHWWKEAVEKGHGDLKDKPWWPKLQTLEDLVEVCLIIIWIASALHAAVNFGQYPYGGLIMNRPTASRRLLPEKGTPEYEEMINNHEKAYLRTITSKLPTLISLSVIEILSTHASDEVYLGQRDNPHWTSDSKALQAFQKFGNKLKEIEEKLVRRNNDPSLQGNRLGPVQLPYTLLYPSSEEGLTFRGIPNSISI

[4] = Pharmacokinetic study of THC after oral gavage, serum and urine by UHPLC-MS/MS; conditions: rat, 500 mg/kg oral
[5] = SUP-T1, read-out: Viability IC50

CYP2D6, sequence (P10635 whole entry): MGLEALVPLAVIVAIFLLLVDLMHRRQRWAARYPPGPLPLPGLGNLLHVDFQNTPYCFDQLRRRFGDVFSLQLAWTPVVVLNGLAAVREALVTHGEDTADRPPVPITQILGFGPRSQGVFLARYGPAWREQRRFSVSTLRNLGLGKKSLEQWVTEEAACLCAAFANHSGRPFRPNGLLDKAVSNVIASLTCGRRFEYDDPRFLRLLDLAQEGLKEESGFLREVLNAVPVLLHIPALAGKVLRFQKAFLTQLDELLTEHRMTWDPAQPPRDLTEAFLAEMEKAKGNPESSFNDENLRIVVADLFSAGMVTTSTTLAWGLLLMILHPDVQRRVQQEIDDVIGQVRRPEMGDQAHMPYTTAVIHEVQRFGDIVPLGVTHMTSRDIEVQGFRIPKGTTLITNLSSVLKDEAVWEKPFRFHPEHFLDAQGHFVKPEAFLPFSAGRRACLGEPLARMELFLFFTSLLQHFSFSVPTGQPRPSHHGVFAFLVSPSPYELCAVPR

SMILES | CYP2D6 inhibition (in words) (CYP2D6) | concentration of greatest antioxidant effect [1] [µM] | CYP2C9 inhibition (in words) (CYP2C9) | CYP3A4 inhibition (in words) (CYP3A4) | IC50 (PCAF) [µM] | change in TNF-α concentration (in words) [2] | CYP1A2 inhibition (in words) (CYP1A2) | IC50 (COX-1) [µM] | COX-2/COX-1 IC50 ratio (COX-2) | lipoxygenase inhibition (in words) [3] | IC50 (Sup-T1 cells; [5]) [µM] | lowest concentration inhibiting lipoxygenase [3] [µM] | also measured
COc1cc(/C=C/C(=O)COC(=O)/C=C/c2ccc(O)c(OC)c2)ccc1O [Calebin-A, calebin-A] | did not show a consistent dose-response inhibition | 100 | dose-dependent inhibition | dose-dependent inhibition | 200 ± 31 | no dose-response change | did not show a consistent dose-response inhibition | 1070 ± 490 | around 1 | did not show any activity | – | – | fold less potent than curcumin, PCAF inhibition (PCAF; ratio of PCAF IC50): 6 fold; IC50 (Sup-T1 cells; Sup-T1 growth inhibition, MTS, mean ± SD, read-out: Viability IC50): 26.2 ± 17 µM; IC50 (HDAC1; mean ± SD): 61.3 ± 11 µM; IC50 (COX-2; mean ± SD, read-out: COX-2 IC50): 784 ± 2200 µM; lipoxygenase inhibition (in words) ([3]; listed as calebin-A): no such inhibitory activity
COc1cc(/C=C/C(=O)CC(=O)/C=C/c2ccc(O)c(OC)c2)ccc1O [Curcumin, curcumin] | – | – | – | – | 33.1 ± 2.8 | slight decrease | – | 3390 ± 8980 | – | inhibited soybean 1,5-lipoxygenase at all doses tested | 19 ± 11 | ≤ 1 | –
COc1cc(CCC(=O)CC(=O)CCc2ccc(O)c(OC)c2)ccc1O [THC, tetrahydrocurcumin] | did not show a consistent dose-response inhibition | 100 | dose-dependent inhibition | dose-dependent inhibition | – | no dose-response change | did not show a consistent dose-response inhibition | 918 ± 1300 | around 1 | inhibited soybean 1,5-lipoxygenase at all doses tested; also recorded: potent lipoxygenase inhibition | 82 ± 116 | ≤ 1 | time of peak serum THC concentration [4]: 1 h; serum THC maxima of the two redistribution phases ([4]; at 6 and 24 h): about 1 μg/mL; maximum rate of urinary excretion ([4]; at 2 h): under 3 μg/h; total amount of THC excreted unchanged in urine ([4]; at 24 h): up to 8 μg; serum THC concentration found up to 20 h later ([4]; up to 20 h after the peak): greater than 1 μg/mL; PCAF inhibition (in words) (PCAF; 0.1-250 μg/mL): no inhibitory activity; maximal growth inhibition (Sup-T1 cells; Sup-T1 cells, up to 100 μM): ≤ 40%; HDAC1 inhibition (in words) (HDAC1; 0.1-250 μg/mL): no inhibitory activity; IC50 (COX-2): 1350 ± 3640 µM
